Results as given in article PMC9329436, “Optimization of the 4-anilinoquin(az)oline scaffold as epidermal growth factor receptor (EGFR) inhibitors for chordoma utilizing a toxicology profiling assay platform” (Scientific Reports, 2022).
Where two headings read alike, the source gives them in different places.

Tests used:
Assay type in all cases: biochemical
[1] = target: 320 wild-type protein kinases (Homo sapiens, UniProt Q86Y07); conditions: kinase VRK2, singlicate
Excerpt: (§1) Table S4. Profiling of two compounds at two concentrations against 320 wild-type protein kinases; singlicate measurement; Residual activities (% of control).

[2] = target: 320 wild-type protein kinases (Homo sapiens, UniProt P49137); conditions: singlicate
Sequence of 320 wild-type protein kinases (Homo sapiens, UniProt P49137) (P49137 whole entry): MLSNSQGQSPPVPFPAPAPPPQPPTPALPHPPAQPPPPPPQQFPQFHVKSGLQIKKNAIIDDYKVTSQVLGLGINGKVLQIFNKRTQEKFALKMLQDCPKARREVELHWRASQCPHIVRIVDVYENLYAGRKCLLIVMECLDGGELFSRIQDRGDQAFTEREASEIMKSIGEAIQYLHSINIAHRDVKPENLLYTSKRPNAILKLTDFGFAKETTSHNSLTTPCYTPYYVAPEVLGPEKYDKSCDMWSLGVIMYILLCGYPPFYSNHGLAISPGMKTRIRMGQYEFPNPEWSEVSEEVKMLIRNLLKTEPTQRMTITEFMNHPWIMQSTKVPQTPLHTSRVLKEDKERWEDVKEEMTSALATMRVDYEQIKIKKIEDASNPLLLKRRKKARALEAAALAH
Excerpt: as §1

[3] = target: T1, 320 wild-type protein kinases (Homo sapiens, UniProt Q16566); conditions: singlicate
T1 sequence (Q16566 1-473): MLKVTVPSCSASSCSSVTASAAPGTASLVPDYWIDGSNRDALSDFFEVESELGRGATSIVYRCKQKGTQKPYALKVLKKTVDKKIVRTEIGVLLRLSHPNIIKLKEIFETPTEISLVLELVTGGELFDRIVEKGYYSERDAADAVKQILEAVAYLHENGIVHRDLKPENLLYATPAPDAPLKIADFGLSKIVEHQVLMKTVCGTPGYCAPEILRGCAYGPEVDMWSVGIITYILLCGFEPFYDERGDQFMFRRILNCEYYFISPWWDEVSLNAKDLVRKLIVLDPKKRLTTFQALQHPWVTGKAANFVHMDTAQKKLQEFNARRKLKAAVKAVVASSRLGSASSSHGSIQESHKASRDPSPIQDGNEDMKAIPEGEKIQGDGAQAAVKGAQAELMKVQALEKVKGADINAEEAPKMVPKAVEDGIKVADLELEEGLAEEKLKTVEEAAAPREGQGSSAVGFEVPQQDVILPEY
Excerpt: as §1

[4] = target: 320 wild-type protein kinases (Homo sapiens, UniProt P78362); conditions: kinase SRPK2, singlicate
Sequence of 320 wild-type protein kinases (Homo sapiens, UniProt P78362) (P78362 whole entry): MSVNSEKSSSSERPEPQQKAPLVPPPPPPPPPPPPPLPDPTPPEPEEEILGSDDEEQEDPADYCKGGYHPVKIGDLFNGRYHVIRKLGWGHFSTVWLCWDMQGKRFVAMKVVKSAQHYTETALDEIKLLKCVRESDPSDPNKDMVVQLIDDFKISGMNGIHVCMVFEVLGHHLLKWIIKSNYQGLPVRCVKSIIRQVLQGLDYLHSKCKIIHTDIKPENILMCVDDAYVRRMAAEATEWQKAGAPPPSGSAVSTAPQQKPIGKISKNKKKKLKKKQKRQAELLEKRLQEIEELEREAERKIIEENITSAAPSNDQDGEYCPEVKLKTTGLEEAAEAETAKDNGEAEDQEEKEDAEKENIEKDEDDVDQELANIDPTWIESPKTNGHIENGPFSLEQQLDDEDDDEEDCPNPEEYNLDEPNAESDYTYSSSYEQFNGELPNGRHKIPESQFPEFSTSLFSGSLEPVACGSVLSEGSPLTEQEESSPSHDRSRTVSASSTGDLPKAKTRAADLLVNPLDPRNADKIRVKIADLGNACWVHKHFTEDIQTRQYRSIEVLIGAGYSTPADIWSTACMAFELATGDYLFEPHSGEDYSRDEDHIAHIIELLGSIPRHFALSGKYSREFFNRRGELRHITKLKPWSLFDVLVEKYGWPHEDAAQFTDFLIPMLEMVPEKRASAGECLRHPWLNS
Excerpt: as §1

[5] = target: T2, 320 wild-type protein kinases (Homo sapiens, UniProt Q99683); conditions: singlicate
T2 sequence (Q99683 1-1374): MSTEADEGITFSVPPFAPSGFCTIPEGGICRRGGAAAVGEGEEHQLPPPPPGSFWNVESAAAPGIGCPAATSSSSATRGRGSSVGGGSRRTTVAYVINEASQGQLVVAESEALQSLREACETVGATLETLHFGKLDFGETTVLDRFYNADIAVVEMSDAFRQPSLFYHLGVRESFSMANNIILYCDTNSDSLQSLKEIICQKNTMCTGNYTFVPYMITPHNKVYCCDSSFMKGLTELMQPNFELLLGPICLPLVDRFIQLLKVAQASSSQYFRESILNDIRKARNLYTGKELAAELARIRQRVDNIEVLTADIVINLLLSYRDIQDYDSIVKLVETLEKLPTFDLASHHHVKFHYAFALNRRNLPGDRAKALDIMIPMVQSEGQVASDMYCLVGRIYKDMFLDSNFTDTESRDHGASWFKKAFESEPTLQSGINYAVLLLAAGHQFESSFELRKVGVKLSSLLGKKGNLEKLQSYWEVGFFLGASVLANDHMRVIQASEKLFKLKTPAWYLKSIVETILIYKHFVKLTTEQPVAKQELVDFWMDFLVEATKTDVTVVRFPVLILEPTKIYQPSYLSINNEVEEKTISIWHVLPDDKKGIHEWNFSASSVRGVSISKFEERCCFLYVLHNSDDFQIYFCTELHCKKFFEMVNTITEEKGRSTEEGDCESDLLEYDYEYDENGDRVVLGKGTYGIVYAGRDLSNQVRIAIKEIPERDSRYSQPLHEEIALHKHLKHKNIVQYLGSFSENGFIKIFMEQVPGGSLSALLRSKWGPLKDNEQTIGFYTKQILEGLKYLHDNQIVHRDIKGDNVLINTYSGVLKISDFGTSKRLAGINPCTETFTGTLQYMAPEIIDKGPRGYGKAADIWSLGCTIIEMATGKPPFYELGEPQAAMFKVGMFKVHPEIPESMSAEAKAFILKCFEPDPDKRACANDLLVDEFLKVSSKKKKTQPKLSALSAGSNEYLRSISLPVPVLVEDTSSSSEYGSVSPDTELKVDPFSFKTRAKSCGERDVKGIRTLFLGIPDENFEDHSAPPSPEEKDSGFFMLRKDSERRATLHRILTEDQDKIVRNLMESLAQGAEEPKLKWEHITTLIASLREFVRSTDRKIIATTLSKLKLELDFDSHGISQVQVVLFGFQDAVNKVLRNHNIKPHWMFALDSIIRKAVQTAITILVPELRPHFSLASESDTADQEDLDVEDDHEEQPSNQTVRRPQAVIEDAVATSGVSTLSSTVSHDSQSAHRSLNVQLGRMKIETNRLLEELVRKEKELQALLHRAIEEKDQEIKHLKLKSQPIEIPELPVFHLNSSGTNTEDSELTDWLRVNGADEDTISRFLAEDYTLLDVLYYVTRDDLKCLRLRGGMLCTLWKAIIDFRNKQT
Excerpt: as §1

[6] = target: 320 wild-type protein kinases (Homo sapiens, UniProt Q9HCP0); conditions: singlicate
Sequence of 320 wild-type protein kinases (Homo sapiens, UniProt Q9HCP0) (Q9HCP0 whole entry): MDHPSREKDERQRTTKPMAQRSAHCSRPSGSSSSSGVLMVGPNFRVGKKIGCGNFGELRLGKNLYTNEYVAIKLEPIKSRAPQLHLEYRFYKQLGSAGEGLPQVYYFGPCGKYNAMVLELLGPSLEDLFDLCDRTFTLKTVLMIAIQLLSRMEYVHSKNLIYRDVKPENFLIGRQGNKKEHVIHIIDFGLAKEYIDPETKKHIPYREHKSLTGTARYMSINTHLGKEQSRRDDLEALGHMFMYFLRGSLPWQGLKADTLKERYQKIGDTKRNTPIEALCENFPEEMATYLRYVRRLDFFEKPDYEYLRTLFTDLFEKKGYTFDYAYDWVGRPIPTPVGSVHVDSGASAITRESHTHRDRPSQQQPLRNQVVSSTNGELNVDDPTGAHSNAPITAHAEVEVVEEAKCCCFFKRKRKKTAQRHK
Excerpt: as §1

[7] = target: 320 wild-type protein kinases (Homo sapiens, UniProt O75716); conditions: kinase TSF1, singlicate
Sequence of 320 wild-type protein kinases (Homo sapiens, UniProt O75716) (O75716 whole entry): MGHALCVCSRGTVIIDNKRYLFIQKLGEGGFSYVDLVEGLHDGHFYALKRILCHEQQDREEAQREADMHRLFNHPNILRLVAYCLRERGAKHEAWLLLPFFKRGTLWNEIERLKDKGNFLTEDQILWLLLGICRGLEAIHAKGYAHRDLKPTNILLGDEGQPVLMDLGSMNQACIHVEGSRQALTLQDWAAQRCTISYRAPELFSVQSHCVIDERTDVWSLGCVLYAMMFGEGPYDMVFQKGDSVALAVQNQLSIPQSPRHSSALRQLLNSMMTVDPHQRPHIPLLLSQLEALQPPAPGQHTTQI
Excerpt: as §1

Sequence of 320 wild-type protein kinases (Homo sapiens, UniProt Q86Y07) (Q86Y07 whole entry): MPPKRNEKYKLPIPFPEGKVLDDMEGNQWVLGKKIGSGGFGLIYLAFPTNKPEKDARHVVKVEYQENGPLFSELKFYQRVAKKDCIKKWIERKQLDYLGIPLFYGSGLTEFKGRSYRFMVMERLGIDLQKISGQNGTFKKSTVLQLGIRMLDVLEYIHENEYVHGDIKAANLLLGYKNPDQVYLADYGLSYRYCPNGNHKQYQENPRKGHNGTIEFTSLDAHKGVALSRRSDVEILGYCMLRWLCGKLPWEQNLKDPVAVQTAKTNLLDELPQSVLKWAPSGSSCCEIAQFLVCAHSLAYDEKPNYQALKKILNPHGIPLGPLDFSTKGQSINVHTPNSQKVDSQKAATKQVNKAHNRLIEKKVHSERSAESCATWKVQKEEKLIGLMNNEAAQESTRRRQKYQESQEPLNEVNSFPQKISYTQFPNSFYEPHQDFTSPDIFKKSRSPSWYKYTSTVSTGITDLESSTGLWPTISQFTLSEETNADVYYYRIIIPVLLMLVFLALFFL

| SMILES | Residual activity, VRK2 ([1]; assay conc. 1.0E-06 M) | Residual activity, VRK2 ([1]; assay conc. 1.0E-07 M) | Residual activity ([2]; MAPKAPK2, 1.0E-07 M) | Residual activity ([3]; CAMK4, 1.0E-06 M) | Residual activity ([3]; CAMK4, 1.0E-07 M) | Residual activity, SRPK2 ([4]; assay conc. 1.0E-06 M) | Residual activity, SRPK2 ([4]; assay conc. 1.0E-07 M) | Residual activity ([5]; ASK1, 1.0E-06 M) | Residual activity ([5]; ASK1, 1.0E-07 M) | Residual activity ([6]; CK1-gamma1, 1.0E-06 M) | Residual activity ([6]; CK1-gamma1, 1.0E-07 M) | Residual activity, TSF1 ([7]; assay conc. 1.0E-06 M) | Residual activity, TSF1 ([7]; assay conc. 1.0E-07 M) | Residual activity ([2]; MAPKAPK2, 1.0E-06 M) |
| --- | --- | --- | --- | --- | --- | --- | --- | --- | --- | --- | --- | --- | --- | --- |
| C#Cc1cc(Nc2ncnc3cc(I)ccc23)ccc1Cl [Compound 41] | 97 % of control | 95 % of control | 139 % of control | 91 % of control | 84 % of control | 115 % of control | 131 % of control | 99 % of control | 95 % of control | 123 % of control | 125 % of control | 94 % of control | 93 % of control | – |
| C#Cc1cc(Nc2ncnc3cc(OC)c(OC)cc23)ccc1Cl [Compound 45] | 232 % of control | 87 % of control | – | 89 % of control | 84 % of control | 151 % of control | 115 % of control | 99 % of control | 93 % of control | 100 % of control | 112 % of control | 104 % of control | 95 % of control | 138 % of control |
